Experimental data reported in PMC8956739, “A synthetic lipopeptide targeting top-priority multidrug-resistant Gram-negative pathogens” (Nature Communications, 2022).
Converted amounts (≈) assume the structure as drawn. “And” between values parts separate entries of the source, which are not always exact repeats. Equal entries are not always repeated. Residues, ends and D or L forms follow the SMILES beside them.

Columns and labels:
[1] = test system: P. aeruginosa ATCC 27853; assay: Neutropenic mouse bloodstream infection model; assay type: in vivo; settings: single IV dose 4 mg/kg; for Log10 CFU/mL blood at 4 h, Mean / Δlog10 CFU/mL blood (mean) / Log10 CFU/mL blood at 4 h, single mouse: 4 h; for Δlog10 CFU/mL blood (mean): treated minus control, mean of replicates; for Δlog10 CFU/mL blood (mean) / Log10 CFU/mL blood at 4 h, single mouse / Delta Log10 CFU/mL blood at 4 h, single mouse: 4 mg/kg; for Delta Log10 CFU/mL blood at 4 h, single mouse: treated mouse minus mean of vehicle mice
Procedure: The experimental methodology for the neutropenic mouse bloodstream infection model was described previously. Briefly, 7-week-old female Swiss mice (22–28 g) were rendered neutropenic by intraperitoneal administration of cyclophosphamide, 4 days (150 mg/kg) and 1 day (100 mg/kg) prior to inoculation. Bloodstream infection was established by intravenous administration of a 50 µL bolus of early log-phase bacterial suspension (4 × 10^8 CFU/mL). Lipopeptide solutions were prepared at 1 mg/mL (free base) in sterile saline. At 2 h after inoculation, mice (n = 3) were injected intravenously with lipopeptide solution at 4 mg/kg (free base) or saline control. At 0 and 4 h after administration, blood was collected, diluted serially in sterile saline, and plated on nutrient agar plates. Agar plates were incubated at 37 °C overnight for bacterial colony counting and the bacterial load in the blood (log10 CFU/mL) in each mouse was calculated. In vivo efficacy was calculated as the difference of the log10 CFU/mL blood values between the treated mice and the saline-treated mice at 4 h post dosing (Δlog10 CFU/mL blood = log10 [treated] CFU/mL blood − log10[control] CFU/mL blood).

[2] = test system: Swiss mice, kidney; assay: Nephrotoxicity in mice (kidney histopathology); assay type: in vivo, mouse; settings: for Kidney histopathology (SQS Score): 72 mg/kg/d subcutaneously in six divided doses every 2 h, n = 3; for Kidney histopathology, mice with the SQS score: mouse, in vivo
Procedure: The experimental methodology has been previously reported by our group. Briefly, individual lipopeptide solutions were prepared in sterile saline (6 mg/mL). Swiss mice (female, 7-week-old, 22–28 g) were subcutaneously administered at 12 mg/kg in, 6 doses every 2 h to reach a total dose of 72 mg/kg (n = 3). For high-dose nephrotoxicity experiments, mice were intraperitoneally administered at 20 or 25 mg/kg, in 6 doses every 2 h to reach a total dose of 120 mg/kg (n = 6) or 150 mg/kg (n = 3). At 20 h after the last dose, the right kidney from each mouse was collected and placed in 10% buffered (pH 7.4) formalin (Sigma-Aldrich, Castle Hill, NSW, Australia). The kidneys were subjected to histological examination at the Australian Phenomics Network-Histopathology and Organ Pathology (University of Melbourne, Parkville, VIC, Australia), who was blind to the treatment groups.

[3] = test system: A. baumannii ATCC 19606; assay type: cell-based, Acinetobacter baumannii; settings: ATCC 19606
Procedure: (§1) MICs were determined in cation-adjusted Mueller–Hinton broth (CaMHB) by the broth micro-dilution method against ATCC strains and clinical isolates. MICs in the presence of Survanta® were determined as described above against P. aeruginosa ATCC 27853. In the 100 μL of fresh CaMHB containing polymyxins, 10% Survanta® (v/v, 2.5 mg/mL phospholipids) was added. MICs in the presence and absence of Survanta® were compared to determine the effect of binding to lung surfactant on the antibacterial activity of polymyxins.

[4] = test system: A. baumannii FADDI-AB030; assay type: cell-based, Acinetobacter baumannii; settings: FADDI-AB030
Procedure: as §1

[5] = test system: A. baumannii FADDI-AB034; assay type: cell-based, Acinetobacter baumannii; settings: FADDI-AB034
Procedure: as §1

[6] = test system: P. aeruginosa ATCC 27853; assay type: cell-based, Pseudomonas aeruginosa; settings: ATCC 27853
Procedure: as §1

[7] = test system: P. aeruginosa FADDI-PA025; assay type: cell-based, Pseudomonas aeruginosa; settings: FADDI-PA025
Procedure: as §1

[8] = test system: P. aeruginosa FADDI-PA038; assay type: cell-based, Pseudomonas aeruginosa; settings: FADDI-PA038
Procedure: as §1

[9] = test system: K. pneumoniae FADDI-KP032; assay type: cell-based, Klebsiella pneumoniae; settings: FADDI-KP032
Procedure: as §1

[10] = test system: K. pneumoniae FADDI-KP065; assay type: cell-based, Klebsiella pneumoniae; settings: FADDI-KP065
Procedure: as §1

Compound | Log10 CFU/mL blood at 4 h, Mean [1] | Δlog10 CFU/mL blood (mean) [1] | Log10 CFU/mL blood at 4 h, single mouse [1] | Delta Log10 CFU/mL blood at 4 h, single mouse [1] | Kidney histopathology (SQS Score) [2] | Kidney histopathology, mice with the SQS score [2] | MIC A. baumannii ATCC 19606 [3] | MIC A. baumannii FADDI-AB030 [4] | MIC A. baumannii FADDI-AB034 [5] | MIC P. aeruginosa ATCC 27853 [6] | MIC P. aeruginosa FADDI-PA025 [7] | MIC P. aeruginosa FADDI-PA038 [8] | MIC K. pneumoniae FADDI-KP032 [9] | MIC K. pneumoniae FADDI-KP065 [10]
CCCCCCCC(=O)N[C@@H](CCN)C(=O)N[C@H](C(=O)N[C@@H](CCN)C(=O)N[C@H]1CCNC(=O)[C@H]([C@@H](C)O)NC(=O)[C@H](CCN)NC(=O)[C@H](CCN)NC(=O)[C@H]([C@@H](C)O)NC(=O)[C@@H](CCCC)NC(=O)[C@H](CCN)NC1=O)[C@@H](C)O [Lipopeptide F226] (HELM PEPTIDE1{[CCCCCCCC(=O)[*:2]].[Dab].T.[Dab].[Dab].[Dab].[CCCC[C@@H](N[*:1])C(=O)[*:2]].T.[Dab].[Dab].T}$PEPTIDE1,PEPTIDE1,5:R3-11:R2$$$V2.0) | 4.20 Log10 CFU/mL blood | −3.24 log10 CFU/mL blood | 4.01 Log10 CFU/mL blood and 4.55 Log10 CFU/mL blood and 4.05 Log10 CFU/mL blood | -3.43 Log10 CFU/mL blood and -2.90 Log10 CFU/mL blood and -3.40 Log10 CFU/mL blood | +1 (SQS + 1 = mild damage (overall score, 1 to <15)) | 1/3 | 2 µg/mL (≈ 1.75 µM) | 0.5 µg/mL (≈ 0.437 µM) | 1 µg/mL (≈ 0.875 µM) | 1 µg/mL (≈ 0.875 µM) | 16 µg/mL (≈ 14 µM) | 1 µg/mL (≈ 0.875 µM) | <0.125 µg/mL | <0.125 µg/mL
CCCCCCCC(=O)N[C@@H](CCN)C(=O)N[C@H](C(=O)N[C@H](CCN)C(=O)N[C@H]1CCNC(=O)[C@H]([C@@H](C)O)NC(=O)[C@H](CCN)NC(=O)[C@H](CCN)NC(=O)[C@H]([C@@H](C)O)NC(=O)[C@@H](CC(C)C)NC(=O)[C@H](CCN)NC1=O)[C@@H](C)O [Lipopeptide F085] (HELM PEPTIDE1{[CCCCCCCC(=O)[*:2]].[Dab].T.[NCC[C@@H](N[*:1])C(=O)[*:2]].[Dab].[Dab].[dL].T.[Dab].[Dab].T}$PEPTIDE1,PEPTIDE1,5:R3-11:R2$$$V2.0) | 2.97 Log10 CFU/mL blood | −2.16 log10 CFU/mL blood | 3.39 Log10 CFU/mL blood and 3.30 Log10 CFU/mL blood and 2.20 Log10 CFU/mL blood | -1.73 Log10 CFU/mL blood and -1.83 Log10 CFU/mL blood and -2.92 Log10 CFU/mL blood | +2 (SQS + 2 = mild to moderate damage (overall score, 15 to <30)) | 2/2 | 1 µg/mL (≈ 0.875 µM) | 0.25 µg/mL (≈ 0.219 µM) | 2 µg/mL (≈ 1.75 µM) | 0.5 µg/mL (≈ 0.437 µM) | 8 µg/mL (≈ 7 µM) | 0.5 µg/mL (≈ 0.437 µM) | 0.25 µg/mL (≈ 0.219 µM) | <0.125 µg/mL
CCCCCCCC(=O)N[C@@H](CCN)C(=O)N[C@H](C(=O)N[C@@H](CCN)C(=O)N[C@H]1CCNC(=O)[C@H]([C@@H](C)O)NC(=O)[C@H](CCN)NC(=O)[C@H](CCN)NC(=O)[C@H]([C@@H](C)O)NC(=O)[C@@H](Cc2ccccc2)NC(=O)[C@H](CCN)NC1=O)[C@@H](C)O [Lipopeptide F224] (HELM PEPTIDE1{[CCCCCCCC(=O)[*:2]].[Dab].T.[Dab].[Dab].[Dab].[dF].T.[Dab].[Dab].T}$PEPTIDE1,PEPTIDE1,5:R3-11:R2$$$V2.0) | 4.07 Log10 CFU/mL blood | −3.38 log10 CFU/mL blood | 4.08 Log10 CFU/mL blood and 4.03 Log10 CFU/mL blood and 4.10 Log10 CFU/mL blood | -3.37 Log10 CFU/mL blood and -3.42 Log10 CFU/mL blood and -3.35 Log10 CFU/mL blood | 0 (SQS 0 = no significant change (overall score, <1)) | 3/3 | 1 µg/mL (≈ 0.849 µM) | 0.25 µg/mL (≈ 0.212 µM) | 0.5 µg/mL (≈ 0.425 µM) | 1 µg/mL (≈ 0.849 µM) | 16 µg/mL (≈ 13.6 µM) | 0.5 µg/mL (≈ 0.425 µM) | 0.5 µg/mL (≈ 0.425 µM) | <0.125 µg/mL
CCCCCCCC(=O)N[C@@H](CCN)C(=O)N[C@H](C(=O)N[C@@H](CCN)C(=O)N[C@H]1CCNC(=O)[C@H]([C@@H](C)O)NC(=O)[C@H](CCN)NC(=O)[C@H](CCN)NC(=O)[C@H](CO)NC(=O)[C@@H](CC(C)C)NC(=O)[C@H](CCN)NC1=O)[C@@H](C)O [Lipopeptide F227] (HELM PEPTIDE1{[CCCCCCCC(=O)[*:2]].[Dab].T.[Dab].[Dab].[Dab].[dL].S.[Dab].[Dab].T}$PEPTIDE1,PEPTIDE1,5:R3-11:R2$$$V2.0) | 6.47 Log10 CFU/mL blood | −1.04 log10 CFU/mL blood | 6.74 Log10 CFU/mL blood and 5.57 Log10 CFU/mL blood and 7.10 Log10 CFU/mL blood | -0.77 Log10 CFU/mL blood and -1.95 Log10 CFU/mL blood and -0.41 Log10 CFU/mL blood | 0 (SQS 0 = no significant change (overall score, <1)) | 3/3 | 8 µg/mL (≈ 7.08 µM) | 4 µg/mL (≈ 3.54 µM) | 4 µg/mL (≈ 3.54 µM) | 0.5 µg/mL (≈ 0.443 µM) | >32 µg/mL | >32 µg/mL | 0.25 µg/mL (≈ 0.221 µM) | 0.25 µg/mL (≈ 0.221 µM)
CCCCCCCC(=O)N[C@@H](CCN)C(=O)N[C@H](C(=O)N[C@@H](CCN)C(=O)N[C@H]1CCNC(=O)[C@H]([C@@H](C)O)NC(=O)[C@H](CCN)NC(=O)[C@H](CCN)NC(=O)[C@H](C)NC(=O)[C@@H](CC(C)C)NC(=O)[C@H](CCN)NC1=O)[C@@H](C)O [Lipopeptide F124] (HELM PEPTIDE1{[CCCCCCCC(=O)[*:2]].[Dab].T.[Dab].[Dab].[Dab].[dL].A.[Dab].[Dab].T}$PEPTIDE1,PEPTIDE1,5:R3-11:R2$$$V2.0) | 4.53 Log10 CFU/mL blood | −2.92 log10 CFU/mL blood | 4.71 Log10 CFU/mL blood and 4.61 Log10 CFU/mL blood and 4.26 Log10 CFU/mL blood | -2.74 Log10 CFU/mL blood and -2.83 Log10 CFU/mL blood and -3.19 Log10 CFU/mL blood | 0 (SQS 0 = no significant change (overall score, <1)) | 3/3 | 1 µg/mL (≈ 0.898 µM) | 1 µg/mL (≈ 0.898 µM) | 0.5 µg/mL (≈ 0.449 µM) | 0.5 µg/mL (≈ 0.449 µM) | >32 µg/mL | 0.5 µg/mL (≈ 0.449 µM) | 0.25 µg/mL (≈ 0.225 µM) | <0.125 µg/mL
